Test results published in publication PMC9851200, “Multiparameter phenotypic screening for endogenous TFEB and TFE3 translocation identifies novel chemical series modulating lysosome function” (Autophagy, 2022).
Read-outs that look alike come from different tables or passages of the source.

Legend:
Conditions in all cases: PKIS2 primary screening
[1] = tested on: endogenous TFEB; test: TFEB nuclear translocation, immunocytochemistry high-content imaging; assay type: cell-based
[2] = tested on: SH-SY5Y cells; test: AK (adenylate kinase) release ToxiLight cytotoxicity assay; note: reference of the scale not given here
[3] = tested on: SH-SY5Y cells; note: reference of the scale not given here
[4] = tested on: SH-SY5Y cells; test: Nuclear count from microscopy images (cellular growth and toxicity); note: reference of the scale not given here
[5] = tested on: endogenous TFE3; test: TFE3 nuclear translocation, immunocytochemistry high-content imaging; assay type: cell-based

Compound	TFEB % [1]	AK [2]	DQ Intensity ([3]; DQ Red BSA intensity)	DQ Spot ([3]; DQ Red BSA spot count)	Nuclear Count [4]	TFE3 % [5]	DQ Intensity [3]	DQ Spot [3]
Cl.c1ccc(-c2n[nH]cc2-c2ccnc(-c3ccc(CN4CCOCC4)cc3)c2)nc1 [UNC10225251A]	7.11%	76.02	80.00	92.60	93.63	7.21%		
C[C@@H](Oc1cc(-n2cnc3cc(-c4ccnc(NCCS(C)(=O)=O)c4)ccc32)sc1C(N)=O)c1ccccc1Cl [UNC10225234A]	11.46%	97.61			68.66	12.54%	121.28	93.41
COc1cccc(NC(=O)NC2CCN(c3ccnc(Nc4cc(OC)c(OC)c(OC)c4)n3)C2)c1 (stereo not drawn) [GSK1379763]	4.72%	111.80	128.42	124.42	90.02	18.80%		
Cc1cc(-c2ccnc(Nc3cccc(C#N)c3)n2)cc(C)c1O [GSK1440913]	7.49%	97.58	63.54	78.51	76.93	21.61%		
Cc1ccc(NC(=O)c2cccc(N3CCCCC3)c2)cc1-c1ccc(C(=O)NCC2CC2)cc1 [UNC10225021A]	6.38%	68.90			118.95	7.57%	102.66	94.61
Cc1ccc2c(-c3ccnc(Nc4ccc(C(F)(F)F)cc4)n3)cnn2n1 [UNC10225224A]	10.89%	79.85			89.44	15.88%	85.12	93.95
COc1ccc(Nc2nccc(-c3ccc(NC(=O)c4cc5cc(F)ccc5[nH]4)cc3)n2)cc1 [GSK1229496]	5.47%	76.92	79.73	89.01	129.71	10.21%		
NCCNS(=O)(=O)c1ccc(-c2ccnc3[nH]ccc23)cc1 [UNC10225023A]	3.25%	82.12	104.54	94.72	129.56	9.07%		
CCn1c(-c2nonc2N)nc2c(C#CC(C)(C)O)nc(OCCN)cc21.Cl.Cl [UNC10225460A]	9.06%	78.09			55.94	15.40%	74.51	103.98
CCc1nc(-c2cccc(N(C)S(=O)(=O)c3ccccc3)c2)c(-c2ccnc(Nc3ccc(N4CCN(C(C)=O)CC4)nc3)n2)s1 [UNC10225205A]	7.99%	111.97			89.51	16.25%	90.69	101.49
COc1cccc(NC(=O)NC2CCN(c3ccnc(Nc4ccc(F)cc4)n3)C2)c1 (stereo not drawn) [GSK1379721]	3.00%	103.41	94.47	102.23	112.40	13.36%		
COc1cc2ncn(-c3cc(OCc4ccncc4Br)c(C(N)=O)s3)c2cc1OC [UNC10225386A]	6.47%	64.35			97.54	3.25%	93.85	100.07
COc1ccc(CNC(=O)NC2CCN(c3ccnc(Nc4ccc(F)cc4)n3)CC2)cc1 [GSK1379788]	3.80%	114.99	86.32	97.11	82.62	14.89%		
O=C(Nc1ccc2c(c1)OCO2)NC1CCN(c2ccnc(Nc3ccc(F)cc3)n2)C1 (stereo not drawn) [GSK1379724]	3.86%	104.22	90.09	99.32	89.10	7.39%		
Fc1cccc(COc2ccc(Nc3ncnc4sc(-c5ccc[nH]5)cc34)cc2Cl)c1 [UNC10225101A]	8.38%	123.35	109.09	86.09	106.63	15.82%		
Nc1cccc(-c2ccc3c(N)n[nH]c3c2)c1 [GSK2193613]	4.96%	94.13	55.67	76.28	112.12	9.08%		
Cc1cccc(Nc2nc(NCCN)ncc2C(N)=O)c1 [UNC10225029A]	4.35%	118.19			111.31	9.09%	100.58	100.70
CS(=O)(=O)CCNCc1nc(-c2ccc3ncnc(Nc4ccc5c(cnn5Cc5ccccc5)c4)c3c2)cs1.Cl.Cl [UNC10225115A]	3.62%	99.64	104.52	112.81	105.59	17.35%		
COc1ccc(-c2nc3n(c2-c2ccncc2)CCC3)cc1 [UNC10225334B]	9.58%	75.67	91.69	94.15	89.36	11.14%		
Cc1c(O)cccc1Nc1ccnc2ccc(C(F)(F)F)cc12.Cl [UNC10225099A]	9.28%	102.37	122.68	95.32	127.64	5.56%		
CCn1c(-c2nonc2N)nc2ccccc21 [UNC10112830A]	9.19%	85.29			114.37	10.17%	143.39	111.62
NC(=O)c1cc(-c2ccccc2)cc2c(C3CCNCC3)c[nH]c12 [UNC10225015A]	3.89%	102.13			93.78	15.20%	84.06	101.36
Fc1ccc(-c2nn3c(OCC(F)(F)F)cccc3c2-c2ccncc2)cc1 [UNC10225249A]	6.54%	70.84	115.73	116.42	84.48	7.21%		
Cl.Cl.Cl.Fc1ccc(-c2ncn(C3CCNCC3)c2-c2ccnc(Nc3ccccc3)n2)cc1 [UNC10225420B]	2.15%	83.09			69.94	11.83%	154.30	110.72
COc1ccc(Nc2nccc(NCCNC(=O)Nc3ccccc3F)n2)cc1 [GSK1379901]	13.61%	100.88	112.97	125.52	49.37	12.56%		
Cl.O=S(=O)(c1cccc(F)c1)c1ccc(Nc2ncnc3cc(Br)sc23)cc1Cl [UNC10224990A]	10.77%	136.08	81.12	105.16	81.79	13.25%		
CCn1c(-c2cccnc2O)nc2cnccc21 [UNC10225114A]	10.78%	77.22			103.96	9.51%	101.68	98.93
